From patent US20030032153A1, “Novel (R)-2,3-butanediol dehydrogenase, methods for producing same, and methods for producing optically active alcohol using the dehydrogenase” (priority 2001, published 2003)

Legend:
[1] = system: (R)-2,3-butanediol dehydrogenase; test: Substrate specificity, reduction reaction of the enzyme obtained in Example 1 with ketones; format: biochemical, Kluyveromyces lactis; conditions: coenzyme NADH; reduction of 4-hydroxy-2-butanone taken as 100
Protocol: (§1) A reaction solution containing 50 mM potassium phosphate buffer (pH 6.5), 0.2 mM NADH, 20 mM 4-hydroxy-2-butanone, and the enzyme is reacted at 30° C., and the decrease in absorbance at 340 nm due to the decrease in NADH is measured. 1 U is defined as the amount of enzyme that catalyzes a decrease of 1 μmol NADH in one minute.
The enzyme obtained in Example 1 was reacted with various alcohols and ketones, and the activity of oxidation and reduction is shown in Table 2. Herein, the relative activity is indicated taking the oxidation of (R)-1,3-butanediol and reduction of 4-hydroxy-2-butanone as 100.

[2] = system: (R)-2,3-butanediol dehydrogenase; test: Substrate specificity, oxidation reaction of the enzyme obtained in Example 1 with alcohols; format: biochemical, Kluyveromyces lactis; conditions: for Relative Activity, Oxidation Reaction: coenzyme NAD+, oxidation of (R)-1,3-butanediol taken as 100
Protocol: (§2) A reaction solution containing 50 mM potassium phosphate buffer (pH 6.5), 2.5 mM NAD^+, 20 mM (R)-1,3-butanediol, and the enzyme is reacted at 30° C., and the increase in absorbance at 340 nm due to the increase of NADH is measured. 1 U is defined as the amount of enzyme that catalyzes an increase of 1 μmol NADH in one minute. Further, the quantity of the protein is determined by the pigment bonding method using protein assay kit (Biorad).
Herein, the relative activity is indicated taking the oxidation of (R)-1,3-butanediol and reduction of 4-hydroxy-2-butanone as 100.

[3] = target: T1, Glycerol dehydrogenase produced from Escherichia coli W-1485 (Escherichia coli, UniProt P0A9S5); conditions: J. Biol. Chem. 259: 2124-2129, 1984; NAD+ reduction; cited from earlier work
T1 construct: host or cells: Escherichia coli W-1485
T1 sequence (P0A9S5 1-367): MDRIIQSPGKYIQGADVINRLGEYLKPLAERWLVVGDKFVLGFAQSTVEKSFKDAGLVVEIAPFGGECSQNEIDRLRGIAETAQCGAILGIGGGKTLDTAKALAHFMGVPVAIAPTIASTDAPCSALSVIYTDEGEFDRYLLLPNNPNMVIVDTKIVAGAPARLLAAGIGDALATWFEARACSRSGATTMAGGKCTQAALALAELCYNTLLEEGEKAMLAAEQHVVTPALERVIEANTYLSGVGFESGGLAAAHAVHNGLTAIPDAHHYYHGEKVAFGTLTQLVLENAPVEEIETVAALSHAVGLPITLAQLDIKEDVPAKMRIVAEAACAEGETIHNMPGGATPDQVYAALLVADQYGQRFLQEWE

[4] = system: (R)-2,3-butanediol dehydrogenase; test: Stereoselectivity, oxidation of alcohol isomers by the enzyme obtained in Example 1; format: biochemical, Kluyveromyces lactis; conditions: coenzyme NAD+; higher oxidation activity between the two isomers taken as 100
Protocol: as §2
The enzyme obtained in Example 1 was reacted with 1,3-butanediol, 1,2-propanediol, 2,3-butanediol, 2-butanol, and 3-chloro-1,2-propanediol, and the activities are shown in Table 3. Herein, the relative activity is indicated, taking the higher oxidation activity between the two isomers as 100. The stereoselectivity for 2,3-butanediol, and 1,2-propandiol of the (R)-2,3-butanediol dehydrogenase according to the present invention was extremely high.

[5] = system: (R)-2,3-butanediol dehydrogenase; test: Substrate specificity, reduction reaction of the enzyme obtained in Example 1 with ketones; format: biochemical, Kluyveromyces lactis
[6] = Reduction activity on 4-hydroxy-2-butanone of the purified enzyme; format: biochemical, Kluyveromyces lactis; conditions: 4-hydroxy-2-butanone reduction activity
Protocol: as §1
Kluyveromyces lactis strain IFO 1267 was cultured in 1.2 liters of YM medium (glucose 20 g/L, yeast extract 3 g/L, malt extract 3 g/L, peptone 5 g/L, pH 6.0) and the cell bodies were prepared by centrifugation. The resulting wet cell bodies were suspended in 50 mM potassium phosphate buffer (pH 8.0), containing 0.02% 2-mercaptoethanol and 2 mM phenylmethane sulfonylfluoride (PMSF), and after homogenizing with Bead Beater (Biospec), the residue of the cell bodies were removed by centrifugation to obtain a cell-free extract. Protamine sulfate was then added to the cell-free extract followed by centrifugation to obtain enucleated supernatant. […]
The (R)-1,3-butanediol oxidation activity and 4-hydroxy-2-butanone reduction activity of the enzyme obtained in Example 1 were measured by changing only the temperature of the standard reaction conditions. […]

[7] = Oxidation activity on (R)-1,3-butanediol of the purified enzyme; format: biochemical, Kluyveromyces lactis; conditions: (R)-1,3-butanediol oxidation activity
Protocol: as §2
The (R)-1,3-butanediol oxidation activity and 4-hydroxy-2-butanone reduction activity of the enzyme obtained in Example 1 was investigated by changing the pH using potassium phosphate buffer solution, sodium acetate buffer solution, and Britton-Robinson wide-range buffer solution. The oxidation activity and the reduction activity are depicted in FIGS. 2 and 3, respectively, wherein the relative activity are indicated taking the maximum activity as 100. The optimum pH was 6.0 for both reactions, oxidation and reduction.
The (R)-1,3-butanediol oxidation activity and 4-hydroxy-2-butanone reduction activity of the enzyme obtained in Example 1 were measured by changing only the temperature of the standard reaction conditions. […] The optimum reaction temperature was 37° C. for both reactions, oxidation and reduction.

For `CCC(=O)CO` [1-Hydroxy-2-butanone], the “Relative Activity, Reduction Reaction” value [1] was 12100.

With `CC(=O)C(C)=O` [2,3-Butanedione] the “Relative Activity, Reduction Reaction” value [1] was 46400.

With `CCC(=O)C(C)=O` [2,3-Pentanedione] the “Relative Activity, Reduction Reaction” value [1] was 51400.

With `CC(=O)CC(C)=O` [2,4-Pentanedione] the “Relative Activity, Reduction Reaction” value [1] was 0.

With `CCC(C)=O` [2-Butanone] the “Relative Activity, Reduction Reaction” value [1] was 31.

With `O=C(CO)c1ccccc1` [2-Hydroxy-acetophenone] the “Relative Activity, Reduction Reaction” value [1] was 360.

For `CCC(=O)CC` [3-Pentanone], the “Relative Activity, Reduction Reaction” value [1] was 100.

For `CCOC(=O)CC(=O)CCl` [4-Chloro-ethyl acetoacetate], the “Relative Activity, Reduction Reaction” value [1] was 0.

For `CC(=O)CCO` [4-Hydroxy-2-butanone], the “Relative Activity, Reduction Reaction” value [1] was 100.

In the case of `C[C@@H](O)[C@@H](C)O` [(2R, 3R)-butanediol, (2R,3R)-2,3-butanediol], the “Relative Activity, Oxidation Reaction” value [2] is given as 15600, the Vmax [3] is given as 28.0 U/mg protein and the “Relative Activity (stereoselectivity)” value [4] is given as 100.

In the case of `C[C@H](O)[C@H](C)O` [(2S,3S)-2,3-butanediol], the “Relative Activity (stereoselectivity)” value [4] is reported as 1.

In the case of `C[C@@H](O)CO` [(R)-1,2-propanediol], the “Relative Activity, Oxidation Reaction” value [2] is reported as 13800 and the “Relative Activity (stereoselectivity)” value [4] is reported as 100.

For `C[C@@H](O)CCO` [(R)-1,3-butanediol], the “Relative Activity, Oxidation Reaction” value [2] was 100 and the “Relative Activity (stereoselectivity)” value [4] was 100.

With `OC[C@@H](O)CCl` [(R)-3-chloro-1,2-propanediol] the “Relative Activity (stereoselectivity)” value [4] was 29.

In the case of `C[C@H](O)CO` [(S)-1,2-propanediol], the “Relative Activity (stereoselectivity)” value [4] is reported as 1.

In the case of `C[C@H](O)CCO` [(S)-1,3-butanediol], the “Relative Activity (stereoselectivity)” value [4] is reported as 35.

With `OC[C@H](O)CCl` [(S)-3-chloro-1,2-propanediol] the “Relative Activity, Oxidation Reaction” value [2] was 128 and the “Relative Activity (stereoselectivity)” value [4] was 100.

In the case of `CC(=O)C(C)O` (stereo not drawn) [Acetoin], the “Relative Activity, Reduction Reaction” value [1] is reported as 101000.

With `CC(=O)CO` [Acetol] the “Relative Activity, Reduction Reaction” value [1] was 53600.

For `CC(C)=O` [Acetone], the “Relative Activity, Reduction Reaction” value [1] was 63.

In the case of `CC(=O)c1ccccc1` [Acetophenone], the “Relative Activity, Reduction Reaction” value [1] is reported as 36.

With `CCO` [Ethanol] the “Relative Activity, Oxidation Reaction” value [2] was 0.

For `CCOC(=O)CC(C)=O` [Ethyl acetoacetate], the “Relative Activity, Reduction Reaction” value [1] was 0.

In the case of `OCC(O)CO` [Glycerin], the “Relative Activity, Oxidation Reaction” value [2] is reported as 66.

For `CC(C)O` [Isopropyl alcohol], the “Relative Activity, Oxidation Reaction” value [2] was 48.

For `NC(=O)C1=CN([C@@H]2O[C@H](COP(=O)(O)OP(=O)(O)OC[C@H]3O[C@@H](n4cnc5c(N)ncnc54)[C@H](OP(=O)(O)O)[C@@H]3O)[C@@H](O)[C@H]2O)C=CC1` [NADPH, reduced β-nicotinamide adenine dinucleotide phosphate], the “use as a coenzyme in the reduction reaction” value [5] was “substantially unable to use”.

In the case of `NC(=O)c1ccc[n+]([C@@H]2O[C@H](COP(=O)([O-])OP(=O)(O)OC[C@H]3O[C@@H](n4cnc5c(N)ncnc54)[C@H](OP(=O)(O)O)[C@@H]3O)[C@@H](O)[C@H]2O)c1` [NADP^+, β-nicotinamide adenine dinucleotide phosphate], the “use as a coenzyme in the oxidation reaction” value [2] is reported as “substantially unable to use”.

In the case of (R)-2-butanol, the “Relative Activity, Oxidation Reaction” value [2] is reported as 28 and the “Relative Activity (stereoselectivity)” value [4] is reported as 100.

For (S)-2-butanol, the “Relative Activity (stereoselectivity)” value [4] was 75.

For n-Butanol, the “Relative Activity, Oxidation Reaction” value [2] was 0.

B1: enzyme obtained in Example 1: NAD+-dependent (R)-2,3-butanediol dehydrogenase purified from Kluyveromyces lactis strain IFO 1267 (SEQ ID NO:2) (protein, listed as Kluyveromyces lactis)
chain: MRALAYFGKQDIRYTKDLEEPVIETDDGIEIEVSWCGICGSDLHEYLDGPIFFPEDGKVHDVSGLGLPQAMGHEMSGIVSKVGPKVTNIKAGDHVVVEATGTCLDHYTWPNAAHAKDAECAACQRGFYNCCAHLGFMGLGVHSGGFAEKVVVSEKHVVKIPNTLPLDVAALVEPISVSWHAVRISKLQKGQSALVLGAGPIGLATILALQGHGASKIVVSEPAEIRRNQAAKLGVETFDPSEHKEDAVNILKKLAPGGEGFDFAYDCSGVKPTFDTGVHATTFRGMYVNIAIWGHKPIDFKPMDVTLQEKFVTGSMCYTIKDFEDVVQALGNGSIAIDKARHLITGRQKIEDGFTKGFDELMNHKEKNIKILLTPNNHGELDATN
With B1 the “optimum pH, reduction” value [6] was 6.0, the specific activity ([6]; after hydroxyapatite column) was “about 1.5 U/mg” and the “optimum pH, oxidation” value [7] was 6.0.
